Laboratory results reported in US20080213248A1, “Methods and Systems for Treating Asthma and Other Respiratory Diseases” (UNIVERSITY OF FLORIDA RESEARCH FOUNDATION, INC., priority 2004, published 2008).
Blank lines part the entries; values can stand above or below the compound they belong to.

Assays:
TRPM8 receptors [1] = details: previous in vitro studies; read-out: antagonistic potencies (IC50) for TRPM8 receptors; cited from earlier work
[2] = system: vagus ganglion neurons (VGNs); assay: Ca2+ imaging (Fluo-3) of acutely dissociated vagus ganglion neurons; assay type: cell-based, rat
Procedure: In one embodiment, retrograde labeling of vagus ganglions or bronchopulmonary tissues is performed on a murine or rat model. […] Instillation of the nerve tracing dye in the lower part of mice trachea was performed and, after 7 days, the mice (or rats) were sacrificed and the vagus ganglions were harvested, dissociated, and plated in dishes. Calcium-imaging approach was then used to identify bronchopulmonary vagus afferent neuron response to cold and menthol. […] All the data were represented as mean ±SEM. Paired-t tests were used for statistical comparison, and significance was considered at the p<0.05. To perform calcium imaging, VGNs were incubated with 2 μM Fluo3-AM in 20% pluronic acid (Molecular Probes, Eugene, Oreg.) for 30 min at 37° C. to load Ca^2+ indicator. The cells were then perfused with normal bath solution flowing at 1 ml/min in a 0.5 ml chamber. The normal bath solution contained (in mM): 150 NaCl, 5 KCl, 2 MgCl2, 2 CaCl2, 10 glucose, 10 HEPES, pH 7.2, osmolarity adjusted to 320 mOsm with sucrose. Fluo-3 fluorescence in the cells was detected using a peltier-cooled charge-coupled device (CCD) camera (PentaMAX-III System, Roper Scientific, Trenton, N.J.) under a fluorescent microscope (10× objective). Excitation was at 450 nm and emission at 550 nm, achieved by a fluorescence filter sets. Images were taken at one frame per second, and digitized using MetaFluor software (Universal Imaging Corporation). Unless otherwise indicated, all experiments were carried out at an ambient temperature of 26° C. Effects of cold on intracellular Ca^2+ levels were tested by application of a cold bath solution, which yield temperature drop from 26° C. to 19° C. within 1 min in the recording chamber. […] In a related embodiment, Adult Sprague-Dawley rats (200 to 300 g, n=48) were used according to the Institutional Animal Care and Use Committee guideline of the University of Florida. The rats were continuously anesthetized with isoflurane using an anaesthetizing machine. To retrograde label the vagus ganglion neurons that innervate low airway tissues, a 20 μl-DiI was instilled into the caudal region of the trachea in living adult rats (see FIG. 1a, which illustrates the instillation of DiI into the lower segment of rat trachea to retrograde label airway VGNs). The animals were positioned supine during dye instillation and kept the same position for 30 min before recovery from anesthesia. […] The neurons were plated on glass coverslips previously covered with PDL and used within 4 hours after plating.

[3] = system: vagus ganglion neurons (VGNs); assay: Whole-cell patch-clamp recordings (voltage-clamp and current-clamp) on menthol-responsive VGNs; assay type: cell-based, rat
rats = assay: Inhalation of menthol, respiratory reaction; assay type: in vivo, rat
TRPM8 receptors [4] = target: T1, TRPM8 receptors (Rattus norvegicus, UniProt Q8R455); assay: TRPM8 expression in cultured sensory neurons in the presence of NGF; assay type: cell-based; details: NGF present
T1 construct: increase in number of TRPM8-expressing neurons in cell culture when in the presence of nerve growth factor (NGF); endogenous in cells; host or cells: cultured sensory neurons
T1 sequence (Q8R455 whole entry): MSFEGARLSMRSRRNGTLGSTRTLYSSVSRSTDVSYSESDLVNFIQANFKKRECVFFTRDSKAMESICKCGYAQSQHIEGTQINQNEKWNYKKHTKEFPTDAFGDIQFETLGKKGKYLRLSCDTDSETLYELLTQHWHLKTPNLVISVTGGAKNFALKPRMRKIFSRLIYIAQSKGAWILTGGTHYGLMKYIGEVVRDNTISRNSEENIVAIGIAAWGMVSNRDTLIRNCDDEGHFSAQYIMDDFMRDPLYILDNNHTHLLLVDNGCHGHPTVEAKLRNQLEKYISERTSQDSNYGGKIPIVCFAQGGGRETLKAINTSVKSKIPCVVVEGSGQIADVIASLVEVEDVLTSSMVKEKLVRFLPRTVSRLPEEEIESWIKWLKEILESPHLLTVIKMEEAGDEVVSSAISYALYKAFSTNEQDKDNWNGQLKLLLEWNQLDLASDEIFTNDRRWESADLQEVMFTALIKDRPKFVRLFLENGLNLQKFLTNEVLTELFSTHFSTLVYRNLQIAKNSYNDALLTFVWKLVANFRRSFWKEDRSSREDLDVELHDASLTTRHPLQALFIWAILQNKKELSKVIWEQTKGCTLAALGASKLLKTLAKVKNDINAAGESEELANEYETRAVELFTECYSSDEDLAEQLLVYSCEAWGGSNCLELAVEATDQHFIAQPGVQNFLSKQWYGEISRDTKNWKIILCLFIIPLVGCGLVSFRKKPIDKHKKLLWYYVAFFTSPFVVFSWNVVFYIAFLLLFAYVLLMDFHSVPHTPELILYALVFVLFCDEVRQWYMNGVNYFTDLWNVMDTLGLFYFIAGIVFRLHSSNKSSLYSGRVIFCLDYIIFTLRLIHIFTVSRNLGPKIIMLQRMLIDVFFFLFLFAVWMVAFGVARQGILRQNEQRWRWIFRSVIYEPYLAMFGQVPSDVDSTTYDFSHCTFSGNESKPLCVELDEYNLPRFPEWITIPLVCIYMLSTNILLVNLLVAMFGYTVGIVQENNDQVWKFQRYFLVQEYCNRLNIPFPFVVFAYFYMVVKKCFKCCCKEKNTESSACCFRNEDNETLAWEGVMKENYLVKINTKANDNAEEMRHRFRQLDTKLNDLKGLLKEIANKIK
Excerpt: Inflammation in lung tissues often can result in the increases the levels of nerve growth factor (NGF). […] Upregulation of TRPM8 receptors on these nerves can sensitize their responses to cold stimulation. FIGS. 8a and 8b illustrate the numbers of TRPM8 expression neurons and the responsiveness of these neurons to the TRPM8 ligand menthol. Specifically, FIG. 8a is a graphical illustration of an increase in number of TRPM8-expressing neurons in cell culture when in the presence of nerve growth factor (NGF). […] is a graphical illustration of the response of TRPM8-expressing neurons to the TRPM8 receptor agonist menthol when cultured in the presence or absence of NGF. The one day cultures were used in the absence of NGF.
Inflammatory reactions in bronchopulmonary tissues of asthma animals are known to result in an increased level of nerve growth factor (NGF). […] An up-regulation of TRPM8 receptors in inflammatory bronchopulmonary tissues will make animals more susceptible to cold.

Compound: NCCOB(c1ccccc1)c1ccccc1 [2-APB, 2-aminoethoxydiphenyl borate]
IC50 (TRPM8 receptors [1]): ~50 µM

Compound: Nc1ncnc2c1ncn2[C@@H]1O[C@H](COP(=O)(O)OP(=O)(O)OP(=O)(O)O)[C@@H](O)[C@H]1O [ATP]
ATP sensitivity of menthol-responsive VGNs ([2]; Ca2+ imaging, menthol and ATP responses): almost all menthol-responsive VGNs were ATP-sensitive

Compound: CC(C)(C)c1ccc(NC(=O)N2CCN(c3ncccc3Cl)CC2)cc1 [BCTC, N-(4-Tertiarybutylphenyl)-4-(3-cholorphyridin-2-yl)tetrahydropyrazine-1(2H)-carbox-amide]
IC50 (TRPM8 receptors [1]): 0.8 ± 1 µM

Compound: Oc1cc2c(cc1O)CN(C(=S)NCCc1ccc(Cl)cc1)CCC2 [capsazepine]
IC50 (TRPM8 receptors [1]): 18 ± 1.1 µM

respiratory reaction on inhalation (rats; menthol 1 μM): respiratory reaction is not obvious
respiratory reaction on inhalation (rats; menthol 1 mM, n=3): results in a breathing difficulty
Compound: CC1CCC(C(C)C)C(O)C1 (stereo not shown) [menthol]
DiI-labeled cells both menthol- and cold-responsive ([2]; 27 of 170 DiI-labeled cells, menthol 100 μM, cold 26 to 19° C.): 16%
DiI-labeled cells showing response to menthol ([2]; menthol 100 μM, 20 s, 28 of 170 DiI-labeled cells): 17%
VGNs with increases of intracellular Ca2+ ([2]; menthol 100 μM, 20 s, 116/1638 cells, DiI-labeled and non-labeled, response ΔF/F0 >0.1): 7%
membrane potential after depolarization by menthol ([3]; menthol 100 μM, 20 s, current-clamp, from resting potential 60±0.6 mV, n=4): 38±1.5 mV
menthol-evoked inward current ([3]; menthol 100 μM, 20 s, voltage-clamp, held at −70 mV, n=7): 191±29 pA
action potential firing ([3]; menthol 100 μM, current-clamp): action potentials elicited
action potential firing ([3]; menthol 100 μM, current-clamp, listed as Menthol): caused action potential firing
reversal potential of menthol-evoked currents ([3]; voltage ramp, strong outward rectification, n=4): −2±0.3 mV

Compound: CC(C)(C)c1ccc(NC(=S)N2CCN(c3ncccc3Cl)CC2)cc1 [thio-BCTC]
IC50 (TRPM8 receptors [1]): 3.5 ± 1.1 µM

TRPM8 receptor expression (TRPM8 receptors [4]): up-regulated
Compound: NGF: nerve growth factor
